Measured values as given in ChEMBL document CHEMBL5291721, “A preclinical secondary pharmacology resource illuminates target-adverse drug reaction associations of marketed drugs” (Nat Commun, 2023).

Assays:
[1] = target: Sodium-dependent dopamine transporter (Homo sapiens, UniProt Q01959)
Thromboxane A2 receptor = target: T1, Thromboxane A2 receptor (Homo sapiens, UniProt P21731); format: functional, cell-based
T1 sequence (P21731 whole entry): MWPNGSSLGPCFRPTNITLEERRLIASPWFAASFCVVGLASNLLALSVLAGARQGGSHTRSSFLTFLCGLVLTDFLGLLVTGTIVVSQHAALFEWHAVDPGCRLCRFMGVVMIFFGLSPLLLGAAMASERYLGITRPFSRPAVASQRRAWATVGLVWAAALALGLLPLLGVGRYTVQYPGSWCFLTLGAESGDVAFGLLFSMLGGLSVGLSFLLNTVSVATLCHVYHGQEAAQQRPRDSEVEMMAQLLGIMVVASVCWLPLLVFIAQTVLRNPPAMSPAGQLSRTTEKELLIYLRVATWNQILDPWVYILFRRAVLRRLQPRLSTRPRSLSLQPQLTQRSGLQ

Histamine H3 receptor = Histamine H3 receptor (Homo sapiens, UniProt Q9Y5N1)
[2] = target: 3',5'-cyclic-AMP phosphodiesterase 4A (Homo sapiens, UniProt P27815); format: functional
Progesterone receptor = target: T2, Progesterone receptor (Homo sapiens, UniProt P06401)
T2 sequence (P06401 whole entry): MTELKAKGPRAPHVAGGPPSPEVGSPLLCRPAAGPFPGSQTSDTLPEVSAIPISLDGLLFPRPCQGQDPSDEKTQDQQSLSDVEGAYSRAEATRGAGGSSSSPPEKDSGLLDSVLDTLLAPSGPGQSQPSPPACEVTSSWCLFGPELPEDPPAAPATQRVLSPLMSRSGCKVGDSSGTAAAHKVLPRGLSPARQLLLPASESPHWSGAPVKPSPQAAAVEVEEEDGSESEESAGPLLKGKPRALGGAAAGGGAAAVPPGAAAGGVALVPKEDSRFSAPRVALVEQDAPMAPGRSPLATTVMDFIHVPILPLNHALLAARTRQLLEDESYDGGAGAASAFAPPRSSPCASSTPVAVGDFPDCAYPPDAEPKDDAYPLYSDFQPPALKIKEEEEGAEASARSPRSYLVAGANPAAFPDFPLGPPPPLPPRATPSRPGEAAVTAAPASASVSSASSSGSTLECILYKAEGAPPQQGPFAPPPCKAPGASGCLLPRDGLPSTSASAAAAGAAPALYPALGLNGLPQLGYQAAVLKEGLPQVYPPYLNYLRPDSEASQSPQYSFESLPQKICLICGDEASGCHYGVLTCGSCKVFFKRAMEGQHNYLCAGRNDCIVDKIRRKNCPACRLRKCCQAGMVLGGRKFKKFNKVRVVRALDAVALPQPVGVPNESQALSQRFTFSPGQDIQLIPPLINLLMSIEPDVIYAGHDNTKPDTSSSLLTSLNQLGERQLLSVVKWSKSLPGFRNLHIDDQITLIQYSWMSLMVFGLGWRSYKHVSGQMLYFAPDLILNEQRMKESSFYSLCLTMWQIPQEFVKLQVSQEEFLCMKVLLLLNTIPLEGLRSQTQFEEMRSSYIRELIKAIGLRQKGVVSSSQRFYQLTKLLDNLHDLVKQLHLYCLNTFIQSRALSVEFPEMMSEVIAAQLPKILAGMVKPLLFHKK

[3] = target: Sodium-dependent noradrenaline transporter (Homo sapiens, UniProt P23975)
[4] = target: Voltage-dependent L-type calcium channel subunit alpha-1C (Homo sapiens, UniProt Q13936); format: functional, cell-based
[5] = target: Beta-1 adrenergic receptor (Homo sapiens, UniProt P08588); format: functional, cell-based
D(4) dopamine receptor = target: T3, D(4) dopamine receptor (Homo sapiens, UniProt P21917)
T3 sequence (P21917 whole entry): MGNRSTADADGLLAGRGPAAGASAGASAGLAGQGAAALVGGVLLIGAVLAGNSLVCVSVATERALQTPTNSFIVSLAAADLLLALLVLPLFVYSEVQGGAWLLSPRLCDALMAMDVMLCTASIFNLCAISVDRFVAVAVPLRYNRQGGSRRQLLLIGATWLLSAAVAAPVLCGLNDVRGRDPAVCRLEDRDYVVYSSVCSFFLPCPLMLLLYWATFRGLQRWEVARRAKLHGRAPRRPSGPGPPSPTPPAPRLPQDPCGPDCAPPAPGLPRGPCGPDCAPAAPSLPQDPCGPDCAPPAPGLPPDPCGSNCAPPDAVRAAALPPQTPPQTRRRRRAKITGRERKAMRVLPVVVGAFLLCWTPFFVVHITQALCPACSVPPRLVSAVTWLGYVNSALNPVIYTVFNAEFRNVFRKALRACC

[6] = target: T4, Corticotropin-releasing factor receptor 2 (Homo sapiens, UniProt Q13324)
T4 sequence (Q13324 whole entry): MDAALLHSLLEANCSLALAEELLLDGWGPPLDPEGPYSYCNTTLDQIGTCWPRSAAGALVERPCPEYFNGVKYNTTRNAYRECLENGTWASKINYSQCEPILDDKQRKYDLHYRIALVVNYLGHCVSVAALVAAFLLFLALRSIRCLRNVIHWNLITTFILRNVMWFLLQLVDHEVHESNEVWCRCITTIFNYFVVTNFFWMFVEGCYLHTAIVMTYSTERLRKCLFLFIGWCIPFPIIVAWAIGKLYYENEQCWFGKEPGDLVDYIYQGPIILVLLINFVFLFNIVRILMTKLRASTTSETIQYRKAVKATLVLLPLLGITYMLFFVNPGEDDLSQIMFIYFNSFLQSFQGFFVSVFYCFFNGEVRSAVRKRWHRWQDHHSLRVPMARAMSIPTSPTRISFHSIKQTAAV

D(1A) dopamine receptor = D(1A) dopamine receptor (Homo sapiens, UniProt P21728)
[7] = target: T5, Endothelin receptor type B (Homo sapiens, UniProt P24530)
T5 sequence (P24530 whole entry): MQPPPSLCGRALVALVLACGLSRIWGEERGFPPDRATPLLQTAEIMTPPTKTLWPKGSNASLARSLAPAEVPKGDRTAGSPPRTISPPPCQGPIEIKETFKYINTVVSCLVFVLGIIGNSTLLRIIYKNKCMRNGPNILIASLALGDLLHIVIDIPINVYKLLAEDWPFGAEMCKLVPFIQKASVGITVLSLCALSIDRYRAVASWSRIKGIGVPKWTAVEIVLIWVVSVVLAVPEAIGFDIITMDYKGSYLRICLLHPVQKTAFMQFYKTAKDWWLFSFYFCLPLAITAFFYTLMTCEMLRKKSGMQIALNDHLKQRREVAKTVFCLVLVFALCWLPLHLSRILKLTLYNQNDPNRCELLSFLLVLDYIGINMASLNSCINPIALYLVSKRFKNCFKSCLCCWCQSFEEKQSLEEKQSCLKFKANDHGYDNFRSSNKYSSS
Note: assay procedure not described here.

D(1A) dopamine receptor, sequence (P21728 whole entry): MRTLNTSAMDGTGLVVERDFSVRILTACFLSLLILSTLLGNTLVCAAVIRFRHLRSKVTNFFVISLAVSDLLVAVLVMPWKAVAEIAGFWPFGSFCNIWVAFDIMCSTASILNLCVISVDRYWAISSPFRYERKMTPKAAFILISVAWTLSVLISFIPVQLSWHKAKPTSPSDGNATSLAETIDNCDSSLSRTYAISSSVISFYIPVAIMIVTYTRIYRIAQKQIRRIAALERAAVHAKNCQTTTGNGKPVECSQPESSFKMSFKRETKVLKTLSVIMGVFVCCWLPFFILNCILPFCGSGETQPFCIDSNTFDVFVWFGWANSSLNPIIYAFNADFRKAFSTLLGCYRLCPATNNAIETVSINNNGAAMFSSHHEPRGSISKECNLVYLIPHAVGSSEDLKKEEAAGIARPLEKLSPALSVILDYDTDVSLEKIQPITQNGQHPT
3',5'-cyclic-AMP phosphodiesterase 4A, sequence (P27815 whole entry): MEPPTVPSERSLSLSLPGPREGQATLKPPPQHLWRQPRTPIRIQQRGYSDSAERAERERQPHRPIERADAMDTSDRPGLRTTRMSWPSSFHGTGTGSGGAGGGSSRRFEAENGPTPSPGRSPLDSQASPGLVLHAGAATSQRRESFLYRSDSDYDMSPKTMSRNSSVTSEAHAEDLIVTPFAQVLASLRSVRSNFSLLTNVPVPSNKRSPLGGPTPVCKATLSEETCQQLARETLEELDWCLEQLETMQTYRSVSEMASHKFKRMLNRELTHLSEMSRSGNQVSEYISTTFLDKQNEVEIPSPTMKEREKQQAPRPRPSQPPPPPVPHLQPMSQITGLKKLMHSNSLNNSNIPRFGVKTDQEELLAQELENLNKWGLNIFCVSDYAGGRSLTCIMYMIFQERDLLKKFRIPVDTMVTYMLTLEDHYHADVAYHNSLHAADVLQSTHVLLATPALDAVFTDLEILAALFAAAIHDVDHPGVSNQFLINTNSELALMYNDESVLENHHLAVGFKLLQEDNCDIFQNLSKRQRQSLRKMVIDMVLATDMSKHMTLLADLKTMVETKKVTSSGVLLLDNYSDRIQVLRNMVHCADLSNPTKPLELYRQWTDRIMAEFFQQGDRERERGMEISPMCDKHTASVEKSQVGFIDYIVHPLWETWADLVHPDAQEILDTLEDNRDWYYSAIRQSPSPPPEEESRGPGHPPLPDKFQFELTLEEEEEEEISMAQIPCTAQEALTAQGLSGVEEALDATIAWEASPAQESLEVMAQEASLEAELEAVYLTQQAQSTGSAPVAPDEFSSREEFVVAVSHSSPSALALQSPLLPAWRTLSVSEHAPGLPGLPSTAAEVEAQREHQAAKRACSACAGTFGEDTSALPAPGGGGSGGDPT
Beta-1 adrenergic receptor, sequence (P08588 whole entry): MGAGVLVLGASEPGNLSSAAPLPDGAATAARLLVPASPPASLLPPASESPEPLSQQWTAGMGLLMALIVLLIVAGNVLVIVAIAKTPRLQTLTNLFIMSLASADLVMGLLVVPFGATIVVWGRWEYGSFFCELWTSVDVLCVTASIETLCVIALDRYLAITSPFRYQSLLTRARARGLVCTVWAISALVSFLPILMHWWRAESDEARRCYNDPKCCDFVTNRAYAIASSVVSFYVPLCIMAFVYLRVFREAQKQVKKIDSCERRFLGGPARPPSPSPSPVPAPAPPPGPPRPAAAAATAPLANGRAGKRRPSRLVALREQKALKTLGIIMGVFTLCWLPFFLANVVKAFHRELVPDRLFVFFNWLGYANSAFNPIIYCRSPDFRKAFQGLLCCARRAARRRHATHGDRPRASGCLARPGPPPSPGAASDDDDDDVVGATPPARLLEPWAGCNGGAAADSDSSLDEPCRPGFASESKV
Sodium-dependent noradrenaline transporter, sequence (P23975 whole entry): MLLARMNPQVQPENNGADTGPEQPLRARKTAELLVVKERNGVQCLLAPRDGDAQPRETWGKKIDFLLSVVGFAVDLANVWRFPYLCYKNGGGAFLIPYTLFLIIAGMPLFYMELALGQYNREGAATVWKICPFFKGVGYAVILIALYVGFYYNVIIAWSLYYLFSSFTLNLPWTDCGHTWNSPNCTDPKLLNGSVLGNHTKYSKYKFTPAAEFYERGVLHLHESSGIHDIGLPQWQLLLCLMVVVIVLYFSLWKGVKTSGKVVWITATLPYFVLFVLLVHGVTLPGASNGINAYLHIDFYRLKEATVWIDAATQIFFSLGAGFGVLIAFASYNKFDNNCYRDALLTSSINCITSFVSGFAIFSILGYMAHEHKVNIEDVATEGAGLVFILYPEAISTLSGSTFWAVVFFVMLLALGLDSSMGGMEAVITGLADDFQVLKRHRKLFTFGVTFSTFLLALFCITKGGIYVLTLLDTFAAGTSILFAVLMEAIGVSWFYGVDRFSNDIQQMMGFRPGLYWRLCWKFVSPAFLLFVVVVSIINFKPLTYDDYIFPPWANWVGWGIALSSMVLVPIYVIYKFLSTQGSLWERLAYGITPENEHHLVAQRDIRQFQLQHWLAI
Histamine H3 receptor, sequence (Q9Y5N1 whole entry): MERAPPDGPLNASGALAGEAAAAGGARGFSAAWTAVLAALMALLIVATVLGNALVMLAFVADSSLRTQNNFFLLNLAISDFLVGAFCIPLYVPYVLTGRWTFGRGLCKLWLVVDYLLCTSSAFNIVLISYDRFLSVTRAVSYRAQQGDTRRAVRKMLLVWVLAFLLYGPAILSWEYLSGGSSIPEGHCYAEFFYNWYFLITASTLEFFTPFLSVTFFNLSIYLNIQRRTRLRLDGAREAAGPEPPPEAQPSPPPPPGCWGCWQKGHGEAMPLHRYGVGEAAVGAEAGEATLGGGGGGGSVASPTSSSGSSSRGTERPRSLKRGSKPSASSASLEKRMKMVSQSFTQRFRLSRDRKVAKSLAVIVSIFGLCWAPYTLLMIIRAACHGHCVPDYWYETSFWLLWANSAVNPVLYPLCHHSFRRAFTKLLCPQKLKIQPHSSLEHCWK
Sodium-dependent dopamine transporter, sequence (Q01959 whole entry): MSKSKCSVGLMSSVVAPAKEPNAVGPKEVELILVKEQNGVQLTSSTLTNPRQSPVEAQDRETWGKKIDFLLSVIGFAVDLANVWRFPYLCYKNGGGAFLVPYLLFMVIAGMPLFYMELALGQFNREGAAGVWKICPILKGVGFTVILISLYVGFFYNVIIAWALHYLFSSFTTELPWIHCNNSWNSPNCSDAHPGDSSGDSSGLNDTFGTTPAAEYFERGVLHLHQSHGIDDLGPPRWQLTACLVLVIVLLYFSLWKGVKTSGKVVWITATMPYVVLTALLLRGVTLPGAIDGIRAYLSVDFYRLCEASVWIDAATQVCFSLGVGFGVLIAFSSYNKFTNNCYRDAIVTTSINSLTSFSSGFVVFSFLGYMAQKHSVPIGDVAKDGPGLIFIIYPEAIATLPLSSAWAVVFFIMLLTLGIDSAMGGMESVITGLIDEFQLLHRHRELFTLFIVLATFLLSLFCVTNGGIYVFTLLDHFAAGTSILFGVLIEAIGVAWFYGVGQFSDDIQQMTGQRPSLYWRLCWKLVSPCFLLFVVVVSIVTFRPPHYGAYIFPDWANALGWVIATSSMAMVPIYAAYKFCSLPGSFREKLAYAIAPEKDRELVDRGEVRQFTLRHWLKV

| Molecule | AC50 [1] [µM] | AC50 (Histamine H3 receptor) [µM] | AC50 [2] [µM] | AC50 (Progesterone receptor) [µM] | AC50 [3] [µM] | AC50 [5] [µM] | AC50 (D(4) dopamine receptor) [µM] | AC50 [6] [µM] | AC50 (D(1A) dopamine receptor) [µM] | AC50 [7] [µM] | other results |
| --- | --- | --- | --- | --- | --- | --- | --- | --- | --- | --- | --- |
| CO[C@]12C[C@@H](COC(=O)c3cncc(Br)c3)CN(C)[C@@H]1Cc1cn(C)c3cccc2c13 [NICERGOLINE] | 11.2 | 7.91 | > 30 | > 30 | 11.1 | – | – | – | – | – | AC50 (Thromboxane A2 receptor): 7.6 µM |
| THIMEROSAL | > 30 | > 30 | > 30 | > 30 | > 30 | – | – | – | – | – | AC50 [4]: > 50 µM |
| C[C@@H]1O[C@@H](O[C@@H]2C=C3CC[C@@H]4[C@H](CC[C@]5(C)[C@@H](c6ccc(=O)oc6)CC[C@]45O)[C@@]3(C)CC2)[C@H](O)[C@H](O)[C@H]1O [PROSCILLARIDIN] | – | – | – | – | – | > 30 | – | – | – | – | – |
| COc1cccc(C2(O)CCCCC2CN(C)C)c1 (configuration not stated) [TRAMADOL] | – | – | – | – | – | – | > 10 | > 30 | > 10 | > 30 | – |
| Cc1c(OCC(F)(F)F)ccnc1C[S+]([O-])c1nc2ccccc2[nH]1 (configuration not stated) [LANSOPRAZOLE] | – | – | – | – | – | – | 2.11 | > 30 | > 10 | > 30 | – |
| C#C[C@]1(O)CC[C@H]2[C@@H]3[C@H](C)CC4=C(CCC(=O)C4)[C@H]3CC[C@@]21C [TIBOLONE] | – | – | – | – | – | > 30 | – | – | – | – | – |
